Columns and labels:
[1] = Ozone gas fastness test of inkjet-printed images (coloring matter residual rate); format: physicochemical; conditions: 24 hours, ozone 10 ppm; for Ozone gas fastness: 60% RH, 24° C.
Protocol: (§1) The components described below were mixed to obtain a black ink composition of the present invention, and then foreign substances were filtered off using a 0.45 μm membrane filter. Hereinafter, the obtained ink composition was referred to as “ink”.
(§2) In addition, ion-exchanged water was used as water. In ink preparation, the pH of ink was adjusted to pH 7 to 9 with sodium hydroxide and after that, ion-exchanged water was added to make the total amount 100 parts.
(§3) Using each ink obtained in the above manner, inkjet printing was performed on three kinds of information recording sheet (inkjet special paper), glossy paper 1 [trade name: Professional Photopaper PR-101, manufactured by Canon Inc.], glossy paper 2 [trade name: Photo Paper CRISPIA (highly glossy), manufactured by Seiko-Epson Corporation], glossy paper 3 [trade name: Advanced Photo Paper (glossy), manufactured by Hewlett-Packard Development Company] by an inkjet printer (trade name: PIXUS® iP4100) manufactured by Canon Inc.
(§4) In printing, an image pattern was made so that several gradations in reflection density were obtained, and black printed matter was obtained.
(§5) Using a colorimeter (trade name: SpectroEye®) manufactured by GRETAG-MACBETH, change in printed image density was measured by measuring, after the test, the gradation part where the reflection density, D value, was nearest to 1.0 on each printed image before the test.
Using an ozone weatherometer manufactured by Suga Test Instruments Co., Ltd., each printed image was left for 24 hours under the conditions of an ozone concentration of 10 ppm, a humidity of 60% RH and a temperature of 24° C. After completion of the test, each printed image was measured by the above colorimeter and the coloring matter residual rate was calculated from the formula (reflection density after test/reflection density before test)×100 (%). The test results are evaluated according to the following criteria. • ◯: Residual rate is 70% or more. • Δ: Residual rate is 60% or more and less than 70%. • ×: Residual rate is less than 60%. 2) Light Fastness Test

[2] = Light fastness test of inkjet-printed images, xenon weatherometer (coloring matter residual rate); format: physicochemical; conditions: for Light fastness: 96 hours, illuminance 100,000 lux, 60% RH, 24° C.; for coloring matter residual rate, light fastness test: 96 hours xenon
Protocol: as §1, §2, §3, §4, §5
Using a low temperature xenon weatherometer (trade name: XL75) manufactured by Suga Test Instruments Co., Ltd., each printed image described above was irradiated for 96 hours under the conditions of a luxilluminance of 100,000, a humidity of 60% RH and a temperature of 24° C. and then measured using the above colorimeter, and the coloring matter residual rate of each image was calculated from the formula (reflection density after test/reflection density before test)×100 (%). The test results are evaluated according to the following criteria. • ◯: Residual rate is 85% or more. • Δ: Residual rate is 80% or more and less than 85%. • ×: Residual rate is less than 80%.

[3] = Glossy paper 1 (Professional Photopaper PR-101, Canon)
[4] = Glossy paper 2 (Photo Paper CRISPIA, Seiko-Epson)
[5] = Glossy paper 3 (Advanced Photo Paper, Hewlett-Packard)

Ozone gas fastness [1, 3] | Ozone gas fastness [1, 4] | Ozone gas fastness [1, 5] | Light fastness [2, 3] | Light fastness [2, 4] | Light fastness [2, 5] | coloring matter residual rate, ozone gas fastness test ([1]; on any glossy paper (1, 2, 3)) | coloring matter residual rate, light fastness test ([2]; glossy paper 1) | coloring matter residual rate, light fastness test ([2]; glossy paper 2) | Structure (SMILES)
◯ (Residual rate is 70% or more.) | ◯ (Residual rate is 70% or more.) | ◯ (Residual rate is 70% or more.) | ◯ (Residual rate is 85% or more.) | ◯ (Residual rate is 85% or more.) | ◯ (Residual rate is 85% or more.) |  |  |  | CS(=O)(=O)O.Cc1cc(N=Nc2c(S(=O)(=O)O)cc3c(S(=O)(=O)O)c(N=Nc4c(C)c(C#N)c5nc6ccccc6n5c4O)ccc3c2O)c(OCCCS(=O)(=O)O)cc1N=Nc1nc2c(S(=O)(=O)O)cc(S(C)(=O)=O)cc2s1 [Example 14]

Structure (SMILES) | Ozone gas fastness [1, 3] | Ozone gas fastness [1, 4] | Ozone gas fastness [1, 5] | Light fastness [2, 3] | Light fastness [2, 4] | Light fastness [2, 5] | coloring matter residual rate, ozone gas fastness test ([1]; on any glossy paper (1, 2, 3)) | coloring matter residual rate, light fastness test ([2]; glossy paper 1) | coloring matter residual rate, light fastness test ([2]; glossy paper 2)
CS(=O)(=O)O.Cc1cc(N=Nc2c(S(=O)(=O)O)cc3c(S(=O)(=O)O)c(N=Nc4c(C)c(C#N)c5nc6ccccc6n5c4O)ccc3c2O)c(OCCCS(=O)(=O)O)cc1N=Nc1nnc(SCCS(=O)(=O)O)s1 [Example 10] | ◯ (Residual rate is 70% or more.) | ◯ (Residual rate is 70% or more.) | ◯ (Residual rate is 70% or more.) | ◯ (Residual rate is 85% or more.) | Δ (Residual rate is 80% or more and less than 85%.) | ◯ (Residual rate is 85% or more.) |  |  | 
CS(=O)(=O)O.Cc1cc(N=Nc2c(S(=O)(=O)O)cc3c(S(=O)(=O)O)c(N=Nc4c(C)c(C#N)c5nc6ccccc6n5c4O)ccc3c2O)c(OCCCS(=O)(=O)O)cc1N=Nc1nc2c(S(=O)(=O)O)cc(S(=O)(=O)O)cc2s1 [Example 13] | ◯ (Residual rate is 70% or more.) | ◯ (Residual rate is 70% or more.) | ◯ (Residual rate is 70% or more.) | Δ (Residual rate is 80% or more and less than 85%.) | ◯ (Residual rate is 85% or more.) | ◯ (Residual rate is 85% or more.) |  |  | 
O=C(O)c1cc(S(=O)(=O)O)ccc1N=Nc1cc(OCCO)c(N=Nc2c(S(=O)(=O)O)cc3c(S(=O)(=O)O)c(N=Nc4c(C(=O)O)nn(-c5ccc(S(=O)(=O)O)cc5)c4O)ccc3c2O)cc1OCCO [Comparative Example 1, reference compound] |  |  |  |  |  | Δ (Residual rate is 80% or more and less than 85%.) | less than 60% | less than 80% | less than 80%

From US7901498B2, “Trisazo compound, ink composition, printing method and colored product” (Nippon Kayaku Kabushiki Kaisha, priority 2007, dated 2011)
